Measurements as given in the supplement of paper PMC6045584.
± gives the standard deviation of the averaged measurements.

Experiments:
[1] = compound: O=c1[nH]cc(F)c(=O)[nH]1 [FLUOROURACIL]; test: surviving fraction relative to DMSO-only wells; higher = less growth inhibition; settings: exposure time: 5 days
Method in brief: (§1)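 Log-phase tumour cell lines, 250–500 cells per well in 384-well plates, received inhibitors at 0.5, 1, 5, 10, 50, 100, 500 and 1000 nM continuously for five days, starting 24 hours after seeding. Viability was quantified with CellTiter-Glo luminescence and normalised to the median of DMSO-only wells to give surviving fraction. Three screens were run per line, and a line stayed in only with replicate Pearson r >0.7 and median Z' >0.3.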

[2] = compound: CN(C)CC[C@H](CSc1ccccc1)Nc1ccc(S(=O)(=O)NC(=O)c2ccc(N3CCN(Cc4ccccc4-c4ccc(Cl)cc4)CC3)cc2)cc1[N+](=O)[O-] [ABT-737]; test: as above; settings: exposure time: 5 days
Method in brief: as §1

| Test System | surviving fraction ([1]; 0.5 nM) | surviving fraction ([1]; 1 nM) | surviving fraction ([1]; 5 nM) | surviving fraction ([1]; 10 nM) | surviving fraction ([1]; 50 nM) | surviving fraction ([1]; 100 nM) | surviving fraction ([1]; 500 nM) | surviving fraction ([1]; 1000 nM) | surviving fraction ([2]; 0.5 nM) | surviving fraction ([2]; 1 nM) | surviving fraction ([2]; 5 nM) | surviving fraction ([2]; 10 nM) | surviving fraction ([2]; 50 nM) | surviving fraction ([2]; 100 nM) | surviving fraction ([2]; 500 nM) | surviving fraction ([2]; 1000 nM) |
| --- | --- | --- | --- | --- | --- | --- | --- | --- | --- | --- | --- | --- | --- | --- | --- | --- |
| HCC1395 BREAST | 1.01 ± 0.093 | 0.966 ± 0.21 | 1.13 ± 0.1 | 1.16 ± 0.072 | 0.945 ± 0.1 | 0.955 ± 0.12 | 0.887 ± 0.053 | 0.947 ± 0.077 | 1.15 ± 0.075 | 1.14 ± 0.053 | 1.27 ± 0.047 | 1.25 ± 0.061 | 1.19 ± 0.024 | 1.32 ± 0.033 | 1.12 ± 0.069 | 1.1 ± 0.065 |
| HCC1806 BREAST | 1.1 ± 0.028 | 1.02 ± 0.12 | 1.08 ± 0.043 | 0.973 ± 0.081 | 0.992 ± 0.069 | 0.939 ± 0.065 | 0.737 ± 0.12 | 0.601 ± 0.033 | 1.06 ± 0.057 | 1.02 ± 0.15 | 1.16 ± 0.081 | 1.207 ± 0.008 | 1.17 ± 0.11 | 1.16 ± 0.067 | 1.05 ± 0.074 | 1.13 ± 0.04 |
| HCC1954 BREAST | 1.13 ± 0.31 | 1.21 ± 0.17 | 1.13 ± 0.07 | 1.26 ± 0.21 | 0.572 ± 0.11 | 0.629 ± 0.063 | 0.681 ± 0.095 | 0.571 ± 0.018 | 1.09 ± 0.11 | 1.02 ± 0.092 | 1.21 ± 0.047 | 1.25 ± 0.033 | 0.878 ± 0.17 | 0.917 ± 0.26 | 0.674 ± 0.15 | 0.564 ± 0.092 |
| HCT15 LARGE INTESTINE | 1.05 ± 0.062 | 1.01 ± 0.051 | 1.043 ± 0.01 | 0.995 ± 0.06 | 0.976 ± 0.069 | 0.878 ± 0.048 | 0.262 ± 0.013 | 0.163 ± 0.0084 | 1.02 ± 0.1 | 1.02 ± 0.14 | 1.02 ± 0.12 | 1.02 ± 0.17 | 1.1 ± 0.073 | 1.08 ± 0.094 | 1.03 ± 0.11 | 1.09 ± 0.029 |
| HELA CERVIX | 1.07 ± 0.017 | 0.993 ± 0.031 | 0.997 ± 0.019 | 1.03 ± 0.037 | 1.01 ± 0.062 | 1.06 ± 0.027 | 1.3 ± 0.035 | 1.15 ± 0.096 | 1.05 ± 0.04 | 1.05 ± 0.04 | 1.06 ± 0.017 | 1.06 ± 0.047 | 1.14 ± 0.085 | 1.11 ± 0.084 | 1.2 ± 0.13 | 1.16 ± 0.07 |
| HOS BONE | 1.05 ± 0.025 | 1.01 ± 0.017 | 1.02 ± 0.015 | 0.99 ± 0.015 | 1.03 ± 0.039 | 1.01 ± 0.034 | 0.8203 ± 0.0081 | 0.639 ± 0.032 | 1.01 ± 0.028 | 1.03 ± 0.013 | 1.03 ± 0.026 | 1.03 ± 0.02 | 1.06 ± 0.016 | 1.084 ± 0.0046 | 1.08 ± 0.046 | 1.03 ± 0.021 |
| HOSMNG BONE | 0.969 ± 0.012 | 1.03 ± 0.037 | 0.933 ± 0.024 | 0.962 ± 0.043 | 1.12 ± 0.13 | 1.19 ± 0.042 | 1.03 ± 0.031 | 1.02 ± 0.037 | 0.879 ± 0.057 | 0.942 ± 0.099 | 0.888 ± 0.06 | 0.893 ± 0.073 | 0.928 ± 0.072 | 1 ± 0.075 | 0.921 ± 0.12 | 0.944 ± 0.11 |
| HSSYII SYNOVIAL | 0.933 ± 0.045 | 0.938 ± 0.078 | 0.992 ± 0.075 | 0.949 ± 0.043 | 0.942 ± 0.016 | 0.911 ± 0.059 | 0.906 ± 0.028 | 0.853 ± 0.02 | 1.03 ± 0.064 | 0.999 ± 0.044 | 0.99 ± 0.043 | 0.972 ± 0.045 | 1.12 ± 0.054 | 0.859 ± 0.041 | 0.637 ± 0.017 | 0.54 ± 0.079 |
| HT1080 SOFT TISSUE | 1.06 ± 0.016 | 1.087 ± 0.0087 | 1.07 ± 0.0075 | 1.07 ± 0.029 | 0.965 ± 0.061 | 0.991 ± 0.021 | 0.637 ± 0.063 | 0.406 ± 0.019 | 1.06 ± 0.045 | 1.06 ± 0.018 | 1.05 ± 0.022 | 1.07 ± 0.045 | 1 ± 0.028 | 1.05 ± 0.029 | 1.01 ± 0.032 | 1.02 ± 0.028 |
| HU09 BONE | 1.06 ± 0.13 | 0.966 ± 0.045 | 1.1 ± 0.022 | 1.1 ± 0.038 | 0.985 ± 0.092 | 0.941 ± 0.051 | 0.693 ± 0.091 | 0.604 ± 0.031 | 1.08 ± 0.08 | 1.07 ± 0.12 | 1.1 ± 0.0064 | 1.06 ± 0.065 | 0.988 ± 0.063 | 0.912 ± 0.08 | 0.697 ± 0.031 | 0.617 ± 0.027 |
| HUO3N1 BONE | 1 ± 0.047 | 1.06 ± 0.02 | 1.09 ± 0.031 | 1.07 ± 0.05 | 1.03 ± 0.059 | 0.99 ± 0.046 | 0.973 ± 0.036 | 0.91 ± 0.029 | 1.03 ± 0.027 | 1.07 ± 0.012 | 1.1 ± 0.041 | 1.1 ± 0.035 | 1.09 ± 0.074 | 1.05 ± 0.039 | 0.994 ± 0.064 | 0.943 ± 0.02 |
| JIMT1 BREAST | 0.932 ± 0.0056 | 0.899 ± 0.021 | 0.979 ± 0.033 | 0.9068 ± 0.0066 | 0.94 ± 0.038 | 0.884 ± 0.062 | 0.948 ± 0.066 | 0.866 ± 0.076 | 1.02 ± 0.048 | 1.05 ± 0.016 | 1.019 ± 0.0045 | 1.018 ± 0.0065 | 1.04 ± 0.037 | 1.07 ± 0.06 | 1.06 ± 0.054 | 1.08 ± 0.032 |
| JURKAT HAEMATOPOIETIC AND LYMPHOID TISSUE | 1.14 ± 0.028 | 1.09 ± 0.0023 | 1.09 ± 0.049 | 1.09 ± 0.016 | 1.04 ± 0.069 | 1.03 ± 0.061 | 1.07 ± 0.022 | 0.842 ± 0.057 | 1.04 ± 0.026 | 1.04 ± 0.029 | 1.05 ± 0.024 | 1.02 ± 0.028 | 0.949 ± 0.025 | 0.932 ± 0.035 | 0.752 ± 0.041 | 0.549 ± 0.0064 |
| KPD BONE | 0.982 ± 0.018 | 0.922 ± 0.052 | 1.02 ± 0.07 | 1.03 ± 0.044 | 1.05 ± 0.048 | 1.02 ± 0.051 | 0.9797 ± 0.0032 | 0.926 ± 0.022 | 1.06 ± 0.038 | 1.02 ± 0.049 | 1.11 ± 0.03 | 1.13 ± 0.069 | 1.07 ± 0.017 | 1.12 ± 0.21 | 0.839 ± 0.023 | 0.691 ± 0.042 |
| LM7 BONE | 0.976 ± 0.039 | 0.992 ± 0.027 | 1.05 ± 0.043 | 1.01 ± 0.047 | 0.851 ± 0.057 | 0.856 ± 0.077 | 0.73 ± 0.079 | 0.628 ± 0.083 | 0.97 ± 0.065 | 1.03 ± 0.09 | 1.11 ± 0.04 | 1.1 ± 0.096 | 1.08 ± 0.061 | 1.13 ± 0.057 | 0.921 ± 0.095 | 0.905 ± 0.043 |
| LNCAP PROSTATE | 1.07 ± 0.039 | 1.17 ± 0.076 | 1.07 ± 0.11 | 1.05 ± 0.043 | 1.17 ± 0.022 | 1.12 ± 0.021 | 0.964 ± 0.18 | 0.73 ± 0.11 | 0.971 ± 0.034 | 0.971 ± 0.041 | 0.932 ± 0.065 | 0.882 ± 0.025 | 0.973 ± 0.035 | 0.932 ± 0.04 | 0.914 ± 0.05 | 0.856 ± 0.1 |
| MCF7 BREAST | 0.929 ± 0.055 | 0.907 ± 0.043 | 0.93 ± 0.035 | 0.893 ± 0.027 | 0.973 ± 0.11 | 0.986 ± 0.032 | 0.837 ± 0.054 | 0.707 ± 0.033 | 0.9422 ± 0.0083 | 0.957 ± 0.048 | 0.993 ± 0.02 | 1 ± 0.039 | 1.02 ± 0.052 | 1.02 ± 0.044 | 0.985 ± 0.02 | 1 ± 0.022 |
| MDAMB134 BREAST | 0.823 ± 0.042 | 0.964 ± 0.16 | 0.832 ± 0.082 | 0.877 ± 0.18 | 0.745 ± 0.094 | 0.744 ± 0.12 | 0.748 ± 0.0042 | 0.714 ± 0.016 | 1.1 ± 0.12 | 0.848 ± 0.18 | 0.786 ± 0.071 | 0.831 ± 0.016 | 0.908 ± 0.096 | 0.914 ± 0.063 | 0.764 ± 0.04 | 0.471 ± 0.033 |
| MDAMB157 BREAST | 0.981 ± 0.019 | 0.969 ± 0.12 | 1.05 ± 0.055 | 1.05 ± 0.1 | 1.02 ± 0.03 | 0.978 ± 0.017 | 0.943 ± 0.044 | 0.836 ± 0.059 | 1.02 ± 0.026 | 0.995 ± 0.13 | 0.952 ± 0.069 | 0.964 ± 0.062 | 1.01 ± 0.032 | 1.01 ± 0.057 | 0.938 ± 0.028 | 0.893 ± 0.059 |
| MDAMB231 BREAST | 0.978 ± 0.019 | 0.947 ± 0.014 | 0.975 ± 0.039 | 0.972 ± 0.022 | 0.961 ± 0.035 | 0.914 ± 0.041 | 0.986 ± 0.021 | 0.865 ± 0.022 | 1 ± 0.031 | 0.99 ± 0.018 | 1.01 ± 0.014 | 1.01 ± 0.018 | 1.02 ± 0.041 | 1.01 ± 0.03 | 1 ± 0.018 | 0.941 ± 0.02 |
| MDAMB361 BREAST | 0.725 ± 0.094 | 0.747 ± 0.067 | 0.8 ± 0.092 | 0.758 ± 0.12 | 0.537 ± 0.042 | 0.618 ± 0.027 | 0.704 ± 0.08 | 0.65 ± 0.061 | 0.853 ± 0.098 | 0.812 ± 0.15 | 0.815 ± 0.058 | 0.921 ± 0.11 | 0.871 ± 0.032 | 0.909 ± 0.085 | 0.843 ± 0.055 | 0.846 ± 0.086 |
